Laboratory results published in ChEMBL document CHEMBL1201862, “PubChem BioAssay data set” (2004).
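How tested: cells in 96-well plates exposed to compound for 48 hours at five concentrations. Abbreviation: GI50, concentration required for 50% inhibition of growth.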 Activity calls are given as the source filed them. Rule as the data show it: active = GI50 up to about 1.1 µM and inactive = higher.

Tests used:
Test in all cases: NCI-60 cell line screen, 48 h
[1] = test system: 786-0
[2] = test system: A498
[3] = test system: BT-549
[4] = test system: CCRF-CEM
[5] = test system: COLO 205
[6] = test system: HCT-15
[7] = test system: HOP-62
[8] = test system: HOP-92
[9] = test system: HT-29
[10] = test system: Hs-578T
[11] = test system: MCF7
[12] = test system: MDA-MB-435
[13] = test system: MOLT-4
[14] = test system: NCI-H226
[15] = test system: RPMI-8226
[16] = test system: SF-295
[17] = test system: SK-MEL-2
[18] = test system: SK-OV-3
[19] = test system: SN12C
[20] = test system: T47D

SMILES	GI50 [1]	GI50 [2]	GI50 [3]	GI50 [4]	GI50 [5]	GI50 [6]	GI50 [7]	GI50 [8]	GI50 [9]	GI50 [10]	GI50 [11]	GI50 [12]	GI50 [13]	GI50 [14]	GI50 [15]	GI50 [16]	GI50 [17]	GI50 [18]	GI50 [19]	GI50 [20]
COC(=O)CN1SC2(SC13C(C)(C)C(=O)C3(C)C)C(C)(C)C(=O)C2(C)C	> 100 µM (inactive)	30 µM (inactive)	27.8 µM (inactive)	11.1 µM (inactive)	37.3 µM (inactive)	> 100 µM	91 µM (inactive)	0.0244 µM (active)	> 100 µM (inactive)	> 100 µM (inactive)	54.2 µM (inactive)	56.2 µM (inactive)	37 µM (inactive)	22.1 µM (inactive)	49.8 µM (inactive)	48.3 µM (inactive)	60.7 µM (inactive)	41 µM (inactive)	48.3 µM (inactive)	> 100 µM (inactive)
CCC(CC)C(=O)OC[n+]1cccc(-c2c(COC(=O)NC(C)C)c(COC(=O)NC(C)C)c3n2CCC3)c1	50 µM (inactive)	> 100 µM (inactive)	> 100 µM (inactive)	38.4 µM (inactive)	> 100 µM (inactive)	> 100 µM	43.4 µM (inactive)	72.3 µM (inactive)	> 100 µM (inactive)	50.7 µM (inactive)	64.9 µM (inactive)	> 100 µM (inactive)	33.3 µM (inactive)	> 100 µM (inactive)	> 100 µM (inactive)	> 100 µM (inactive)	> 100 µM (inactive)	> 100 µM (inactive)	58.2 µM (inactive)	> 100 µM (inactive)
Cc1cc(S(=O)(=O)Nc2nnc3cc(C(F)(F)F)cc(C)n23)c(S)cc1Cl	> 80.5 µM (inactive)	18.9 µM (inactive)	> 35.2 µM (inactive)	> 100 µM (inactive)	> 100 µM (inactive)	> 91.6 µM	35.2 µM (inactive)	> 76.9 µM (inactive)	> 100 µM (inactive)	> 72.4 µM (inactive)	> 31.6 µM (inactive)	> 65.8 µM (inactive)	> 100 µM (inactive)	> 54.6 µM (inactive)	> 100 µM (inactive)	55.1 µM (inactive)	30.7 µM (inactive)	38.3 µM (inactive)	> 100 µM (inactive)	> 100 µM (inactive)
COc1c(O)c2ccccc2c2cc(O)ccc12	12.2 µM (inactive)	8.45 µM (inactive)	2.43 µM (inactive)	6.24 µM (inactive)	16 µM (inactive)	6.34 µM	10.6 µM (inactive)	10.6 µM (inactive)	21 µM (inactive)	17.4 µM (inactive)	2.39 µM (inactive)	1 µM (active)	8.61 µM (inactive)	13.6 µM (inactive)	7.21 µM (inactive)	10 µM (inactive)	4.79 µM (inactive)	20.5 µM (inactive)	5.2 µM (inactive)	13.5 µM (inactive)
COc1ccc(/N=C(C)/C(C)=N/c2ccc(OC)cc2)cc1	> 100 µM (inactive)	> 100 µM (inactive)	3.78 µM (inactive)	39.1 µM (inactive)	14.4 µM (inactive)	15.6 µM	> 100 µM (inactive)	88.1 µM (inactive)	48.6 µM (inactive)	> 100 µM (inactive)	> 100 µM (inactive)	8.95 µM (inactive)	15.6 µM (inactive)	> 100 µM (inactive)	25.1 µM (inactive)	17 µM (inactive)	> 100 µM (inactive)	> 100 µM (inactive)	> 100 µM (inactive)	77.1 µM (inactive)
Cc1cc(=O)n2c3c(c4c(cc13)c(CN(C)C)cc(=O)n4C)OC2	15.9 µM (inactive)	38.2 µM (inactive)	22 µM (inactive)	> 24.8 µM (inactive)	11.7 µM (inactive)	6.15 µM	15.2 µM (inactive)	28.5 µM (inactive)	8.13 µM (inactive)	12.4 µM (inactive)	6.47 µM (inactive)	20.9 µM (inactive)	7.48 µM (inactive)	9.04 µM (inactive)	25.2 µM (inactive)	16.9 µM (inactive)	20.3 µM (inactive)	26.8 µM (inactive)	20.3 µM (inactive)	38.5 µM (inactive)
COc1ccc(/C=C(/C#N)C(N)=O)cc1OC	> 100 µM (inactive)	72.6 µM (inactive)	> 100 µM (inactive)	42.1 µM (inactive)	> 100 µM (inactive)	> 100 µM	> 100 µM (inactive)	> 100 µM (inactive)	> 100 µM (inactive)	> 100 µM (inactive)	> 100 µM (inactive)	> 100 µM (inactive)	> 100 µM (inactive)	> 100 µM (inactive)	> 100 µM (inactive)	> 100 µM (inactive)	> 100 µM (inactive)	> 100 µM (inactive)	> 100 µM (inactive)	> 100 µM (inactive)
COc1cc(C2c3cc4c(cc3OC(NN)C2C)OCO4)cc(OC)c1OC (stereo not given)	0.653 µM (active)	0.257 µM (active)	9.12 µM (inactive)	0.405 µM (active)	0.575 µM (active)	0.406 µM	0.462 µM (active)	2.04 µM (inactive)	0.36 µM (active)	0.234 µM (active)	0.443 µM (active)	0.157 µM (active)	0.406 µM (active)	0.979 µM (active)	0.289 µM (active)	0.406 µM (active)	0.647 µM (active)	1.38 µM (inactive)	0.757 µM (active)	87.3 µM (inactive)
